# Source: patent publication US11661426B2, “Imidazole-containing inhibitors of ALK2 kinase” (BioCryst Pharmaceuticals, Inc., priority 2017, dated 2023)
# Target: ALK2 (Homo sapiens (Human), UniProt Q04771)
# Experiment: ALK2 inhibition, LanthaScreen Eu Kinase Binding Assay (ThermoFisher Scientific / Life Technologies)
# Conditions: read-out: Measured Ki (IC50) Value for Compounds: IC50
# Description: Biochemical assays to measure the inhibitory effects of the compounds were performed by ThermoFisher Scientific (Life Technologies). ALK2 inhibition was tested using LanthaScreen™ Eu Kinase Binding Assay screening protocol.
# Chain of ALK2 (Q04771 21-509): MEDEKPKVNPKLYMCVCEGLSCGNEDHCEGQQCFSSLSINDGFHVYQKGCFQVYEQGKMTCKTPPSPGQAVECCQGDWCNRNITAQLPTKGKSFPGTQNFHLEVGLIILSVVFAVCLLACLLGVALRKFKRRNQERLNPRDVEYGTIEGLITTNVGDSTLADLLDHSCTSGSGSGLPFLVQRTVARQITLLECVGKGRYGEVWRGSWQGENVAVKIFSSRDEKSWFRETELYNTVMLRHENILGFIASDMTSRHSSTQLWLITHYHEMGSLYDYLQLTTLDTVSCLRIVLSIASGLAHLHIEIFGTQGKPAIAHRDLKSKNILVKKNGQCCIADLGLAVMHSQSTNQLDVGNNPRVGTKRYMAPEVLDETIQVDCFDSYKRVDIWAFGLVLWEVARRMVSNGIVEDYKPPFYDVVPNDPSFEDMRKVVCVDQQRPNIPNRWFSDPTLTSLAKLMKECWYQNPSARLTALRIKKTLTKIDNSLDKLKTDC
row,Compound,IC50 [µM]
1,"NC(=O)[C@@H]1CCCN1c1nc(Nc2cn(-c3ccc4c(c3)OC(F)(F)O4)cn2)c2ccsc2n1 [Compound 431e, (S)-1-(4-((1-(2,2-difluorobenzo[d][1,3]dioxol-5-yl)-1H-imidazol-4-yl)amino)thieno[2,3-d]pyrimidin-2-yl)pyrrolidine-2-carboxamide]",> 1
2,"OC[C@@H]1CCCN1c1nc(Nc2cn(-c3ccc4c(c3)OC(F)(F)O4)cn2)c2ccsc2n1 [Compound 432a, (S)-(1-(4-((1-(2,2-difluorobenzo[d][1,3]dioxol-5-yl)-1H-imidazol-4-yl)amino)thieno[2,3-d]pyrimidin-2-yl)pyrrolidin-2-yl)methanol]",0.1 to 1
3,"OC[C@@H]1CCCN1c1nc(Nc2cn(-c3ccc4c(c3)OC(F)(F)O4)cn2)c2cccn2n1 [Compound 433b, (S)-(1-(4-((1-(2,2-difluorobenzo[d][1,3]dioxol-5-yl)-1H-imidazol-4-yl)amino)pyrrolo[2,1-f][1,2,4]triazin-2-yl)pyrrolidin-2-yl)methanol]",0.1 to 1
4,"OC[C@@H]1CCCN1c1nc(Nc2cn(-c3ccnc4c(F)cccc34)cn2)c2cccn2n1 [Compound 441e, (S)-(1-(4-((1-(8-fluoroquinolin-4-yl)-1H-imidazol-4-yl)amino)pyrrolo[2,1-f][1,2,4]triazin-2-yl)pyrrolidin-2-yl)methanol]",< 0.1
5,"COc1cc(-n2cnc(Nc3nc(N4CCC[C@H]4CO)c4c(C)nn(C5CCC5)c4n3)c2)cc(OC)c1OC [Compound 442c, (S)-(1-(1-cyclobutyl-3-methyl-6-((1-(3,4,5-trimethoxyphenyl)-1H-imidazol-4-yl)amino)-1H-pyrazolo[3,4-d]pyrimidin-4-yl)pyrrolidin-2-yl)methanol]",< 0.1
6,"OC[C@@H]1CCCN1c1nc(Nc2cn(-c3ccnc4ccsc34)cn2)c2cccn2n1 [Compound 443e, (S)-(1-(4-((1-(thieno[3,2-b]pyridin-7-yl)-1H-imidazol-4-yl)amino)pyrrolo[2,1-f][1,2,4]triazin-2-yl)pyrrolidin-2-yl)methanol]",< 0.1
7,"COc1cc(-n2cnc(Nc3nc(N4CCC[C@H]4CO)c4c(C)nn([C@H]5C[C@@H](N)C5)c4n3)c2)cc(OC)c1OC [Compound 444c, ((S)-1-(1-((cis)-3-aminocyclobutyl)-3-methyl-6-((1-(3,4,5-trimethoxyphenyl)-1H-imidazol-4-yl)amino)-1H-pyrazolo[3,4-d]pyrimidin-4-yl)pyrrolidin-2-yl)methanol]",< 0.1
8,"COc1cc(-n2cnc(Nc3nc(N4CCC[C@H]4CO)c4c(C)nn([C@H]5C[C@H](N)C5)c4n3)c2)cc(OC)c1OC [Compound 445c, ((S)-1-(1-((trans)-3-aminocyclobutyl)-3-methyl-6-((1-(3,4,5-trimethoxyphenyl)-1H-imidazol-4-yl)amino)-1H-pyrazolo[3,4-d]pyrimidin-4-yl)pyrrolidin-2-yl)methanol]",< 0.1
9,"COc1cc(-n2cnc(Nc3nc(N4CCC[C@H]4CO)c4c(C)nn(C5CCOC5)c4n3)c2)cc(OC)c1OC (stereo partly drawn) [Compound 446c, ((2S)-1-(3-methyl-1-(tetrahydrofuran-3-yl)-6-((1-(3,4,5-trimethoxyphenyl)-1H-imidazol-4-yl)amino)-1H-pyrazolo[3,4-d]pyrimidin-4-yl)pyrrolidin-2-yl)methanol]",< 0.1
10,"COc1cc(-n2cnc(Nc3nc(N4CCC[C@H]4CO)c4c(C)nn([C@H]5CC[C@@H](O)CC5)c4n3)c2)cc(OC)c1OC [Compound 447c, (cis)-4-(4-((S)-2-(hydroxymethyl)pyrrolidin-1-yl)-3-methyl-6-((1-(3,4,5-trimethoxyphenyl)-1H-imidazol-4-yl)amino)-1H-pyrazolo[3,4-d]pyrimidin-1-yl)cyclohexanol]",< 0.1
11,"OC[C@@H]1CCCN1c1nc(Nc2cn(-c3ccnc4ccccc34)cn2)c2cccn2n1 [Compound 448e, (S)-(1-(4-((1-(quinolin-4-yl)-1H-imidazol-4-yl)amino)pyrrolo[2,1-f][1,2,4]triazin-2-yl)pyrrolidin-2-yl)methanol]",< 0.1
12,"OC[C@@H]1CCCN1c1nc(Nc2cn(-c3cn(C4CC4)cn3)cn2)c2cccn2n1 [Compound 449d, (S)-(1-(4-((1′-cyclopropyl-1′H-[1,4′-biimidazol]-4-yl)amino)pyrrolo[2,1-f][1,2,4]triazin-2-yl)pyrrolidin-2-yl)methanol]",< 0.1
13,"OC[C@@H]1CCCN1c1nc(Nc2cn(-c3cn(C4CCC4)cn3)cn2)c2cccn2n1 [Compound 450d, (S)-(1-(4-((1′-cyclobutyl-1′H-[1,4′-biimidazol]-4-yl)amino)pyrrolo[2,1-f][1,2,4]triazin-2-yl)pyrrolidin-2-yl)methanol]",0.1 to 1

# Second part, the molecule after the results:
row,IC50 [µM],Compound
1,< 0.1,"COc1cc(-n2cnc(Nc3nc(N4CCC[C@H]4CO)c4cnn(C5CCCCO5)c4n3)c2)cc(OC)c1OC (stereo partly drawn) [Compound 430b, ((2S)-1-(1-(tetrahydro-2H-pyran-2-yl)-6-((1-(3,4,5-trimethoxyphenyl)-1H-imidazol-4-yl)amino)-1H-pyrazolo[3,4-d]pyrimidin-4-yl)pyrrolidin-2-yl)methanol]"
2,< 0.1,"OCc1cccc(-n2cnc(Nc3nc(N4CCC[C@H]4CO)nn4cccc34)c2)c1 [Compound 434e, (S)-(1-(4-((1-(3-(hydroxymethyl)phenyl)-1H-imidazol-4-yl)amino)pyrrolo[2,1-f][1,2,4]triazin-2-yl)pyrrolidin-2-yl)methanol]"
3,< 0.1,"COc1cc(-n2cnc(Nc3nc(N4CCC[C@H]4CO)c4c(C)nn([C@H]5CC[C@H](N)CC5)c4n3)c2)cc(OC)c1OC [Compound 435e, ((S)-1-(1-((trans)-4-aminocyclohexyl)-3-methyl-6-((1-(3,4,5-trimethoxyphenyl)-1H-imidazol-4-yl)amino)-1H-pyrazolo[3,4-d]pyrimidin-4-yl)pyrrolidin-2-yl)methanol]"
4,< 0.1,"OCc1ccc(-n2cnc(Nc3nc(N4CCC[C@H]4CO)nn4cccc34)c2)cc1 [Compound 436e, (S)-(1-(4-((1-(4-(hydroxymethyl)phenyl)-1H-imidazol-4-yl)amino)pyrrolo[2,1-f][1,2,4]triazin-2-yl)pyrrolidin-2-yl)methanol]"
5,< 0.1,"Cc1cc(-n2cnc(Nc3nc(N4CCC[C@H]4CO)nn4cccc34)c2)ccn1 [Compound 437e, (S)-(1-(4-((1-(2-methylpyridin-4-yl)-1H-imidazol-4-yl)amino)pyrrolo[2,1-f][1,2,4]triazin-2-yl)pyrrolidin-2-yl)methanol]"
6,< 0.1,"COc1cc(-n2cnc(Nc3nc(N4CCC[C@H]4CO)c4c(C)nn(CC5CCCCC5)c4n3)c2)cc(OC)c1OC [Compound 438c, (S)-(1-(1-(cyclohexylmethyl)-3-methyl-6-((1-(3,4,5-trimethoxyphenyl)-1H-imidazol-4-yl)amino)-1H-pyrazolo[3,4-d]pyrimidin-4-yl)pyrrolidin-2-yl)methanol]"
7,< 0.1,"COc1cc(-n2cnc(Nc3nc(N4CCC[C@H]4CO)c4c(C)nn(C5CCCCC5)c4n3)c2)cc(OC)c1OC [Compound 439c, (S)-(1-(1-cyclohexyl-3-methyl-6-((1-(3,4,5-trimethoxyphenyl)-1H-imidazol-4-yl)amino)-1H-pyrazolo[3,4-d]pyrimidin-4-yl)pyrrolidin-2-yl)methanol]"
8,< 0.1,"COc1cc(-n2cnc(Nc3nc(N4CCC[C@H]4CO)c4c(C)nn(C5CCCC5)c4n3)c2)cc(OC)c1OC [Compound 440c, (S)-(1-(1-cyclopentyl-3-methyl-6-((1-(3,4,5-trimethoxyphenyl)-1H-imidazol-4-yl)amino)-1H-pyrazolo[3,4-d]pyrimidin-4-yl)pyrrolidin-2-yl)methanol]"
